{"source": "patent US20110010099A1", "about": "“Correlation Analysis of Biological Systems” (priority 2005, published 2011)", "assay_type_in_all_cases": "in vivo", "key": {"[1]": {"tested_on": "liver of male Wistar Hannover rats", "assay": "Rat hepatotoxicity study: liver morphology / histopathology for steatosis", "settings": "7 days dosing, sacrifice day 8, male Wistar Hannover rats", "excerpt": "The primary objective of the study was to discover biomarkers in plasma of hepatic steatotic processes. In the course of this study, multiple molecular profiling techniques and data analysis methodologies were employed. A corollary objective of this study was to elucidate mechanisms underlying hepatic steatosis induced by the drug.\nThe study was designed to generate tissue and body fluid samples from groups of animals exposed for varying times at different doses to a drug previously shown to produce toxic steatosis of the liver.\n(§1) Five Wistar Hannover male rats were used per group. Three groups were dosed for 7 days (control, low and intermediate dose) and urine collected twice daily for up to 7 days. One group was dosed once with a high dose of the drug and kept in a metabolism cage for a recovery study. In addition, three groups (control, intermediate and high dose) were dosed once and sacrificed after 24 hours. Plasma and liver tissue samples were collected from all groups at necropsy. Clinical pathology was performed and histopathological evaluations were provided.\nThe study was designed to generate tissue and body fluid samples from groups of animals treated for varying times and with different doses of ABC123. The different time points and dosing schedules were intended to allow the identification of biomarkers of steatosis over different times and doses."}, "[2]": {"tested_on": "plasma analytes of male Wistar Hannover rats", "assay": "Plasma GC-MS metabolite profiling in rat hepatotoxicity study", "settings": "Group 3 drug-administered animals compared to Group 1 animals", "procedure": "as §1\nLiver and plasma lipid LC-MS. Samples (liver or plasma) were treated with isopropanol to precipitate the protein and to extract the lipid metabolites. […] Resulting mass spectra were peak detected with IMPRESS (proprietary software, BG Medicine, Inc., Waltham, Mass.) and aligned/normalized with Equest and WinLin (proprietary software, BG Medicine, Inc., Waltham, Mass.). […] Metabolites detected with this approach include polar and non-polar lipids. […] The samples were detected with electron impact ionization on an Agilent 5973 MSD. […] Metabolites detected with this method include: alcohols, aldehydes and cyclohexanols, amino acids, acyl amino acids, succinylamino acids, amines, aromatic compounds, fatty acids (>C6), organic acids, phospho-organic acids, sugars, sugar acids, sugar amines, and sugar phosphates. […]"}, "[3]": {"tested_on": "Enzyme_ABC in liver tissue", "assay": "Liver LC-MS proteomics profiling in rat hepatotoxicity study", "settings": "Group 3 drug-administered animals relative to Group 1 control animals", "procedure": "as §1\n• Sample: 100 mg of liver dissected from the thawed liver sample was cut into four 25 mg pieces and homogenized. • Clarification/Fractionation: Unbroken cells, nuclei and extracellular debris were removed using low-G centrifugation, and the resulting clarified homogenate was then subjected to membrane/cytosol fractionation using high-speed ultracentrifugation. • Protein Fractionation of Cytosol: The total cytosolic protein was subjected to C4 reversed-phase column chromatography to isolate 3 fractions for proteomic analysis. […] The resulting membrane tryptic peptide fraction was dried in vacuo. • Profiling of Peptides: Cytosolic peptides from the three acidic peptide sets and the membrane tryptic peptide fraction were quantitatively analyzed for differential expression via reversed-phase LC-ESI-MS. […]"}, "[4]": {"tested_on": "liver mRNA transcripts (Enzyme_ABC, Enzyme_DEF)", "assay": "Liver mRNA transcript profiling (Affymetrix U34A) in rat hepatotoxicity study", "settings": "Group 3 drug-administered animals relative to Group 1 control animals", "quoted_text": "Affymetrix microarray processing was carried out on liver tissue samples from 35 animals distributed among the seven experimental groups.\nAn additive effect on the log-transformed signal related to hybridization day was modeled, and the triplicate control samples were used to estimate the effect."}}}
{"smiles": "Cn1c(=O)c2c(ncn2CC2OCCO2)n(C)c1=O", "note": "[ABC123]", "values": [{"measurement": "steatosis upon examination of the livers using standard morphology techniques", "setting": "[1]; Group 2 (lowest dose): 20 mg/kg/day", "result": "no evidence of steatosis"}, {"measurement": "steatosis upon examination of the livers using standard morphology techniques", "setting": "[1]; Group 3: 200 mg/kg/day", "result": "morphological steatosis"}, {"measurement": "increase in abundance of Metabolite_XYZ in plasma (plasma GC-MS platform)", "setting": "[2]", "result": "approximately 1.4 fold"}, {"measurement": "reduction in abundance of Enzyme_ABC in liver tissue (proteomics platform)", "setting": "[3]", "result": "approximately 2 fold"}, {"measurement": "reduction in abundance of Enzyme_ABC in liver tissue (mRNA transcript platform)", "setting": "[4]", "result": "approximately 1.7 fold"}]}
